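Where inhibition never reached the appropriate level, the endpoint shown equals the highest concentration tested. Otherwise, values were interpolated linearly from a five-concentration, 48-hour dose response in 96-well plates. GI50 marks 50% less growth.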 The source made the active and inactive calls. Cut-off read from the data, not from the text of the source: active = GI50 up to about 1.1 µM and inactive = higher.
Tests used:
Test in all cases: DTP human tumour cell line panel, 48 h
[1] = system: A549
[2] = system: ACHN
[3] = system: BT-549
[4] = system: M14
[5] = system: MDA-MB-435
[6] = system: MOLT-4
[7] = system: OVCAR-3
[8] = system: OVCAR-5
[9] = system: OVCAR-8
[10] = system: PC-3
[11] = system: SK-MEL-2
[12] = system: SK-MEL-5
[13] = system: SK-OV-3
[14] = system: SW-620
[15] = system: T47D
[16] = system: UACC-62
[17] = system: Malme-3M
[18] = system: OVCAR-4
[19] = system: RXF 393
[20] = system: SR

Structure (SMILES) | GI50 [1] | GI50 [2] | GI50 [3] | GI50 [4] | GI50 [5] | GI50 [6] | GI50 [7] | GI50 [8] | GI50 [9] | GI50 [10] | GI50 [11] | GI50 [12] | GI50 [13] | GI50 [14] | GI50 [15] | GI50 [16] | GI50 [17] | GI50 [18] | GI50 [19] | GI50 [20]
CCOC(=O)c1cc(=O)c2ccnc3c2n1CCS3 | 69.8 µM (inactive) | > 100 µM (inactive) | 62.2 µM (inactive) | > 100 µM (inactive) | > 100 µM (inactive) | > 100 µM (inactive) | 61.7 µM (inactive) | > 100 µM (inactive) | > 100 µM (inactive) | > 100 µM (inactive) | > 100 µM (inactive) | > 100 µM (inactive) | > 100 µM (inactive) | > 100 µM (inactive) | 17.6 µM (inactive) | > 100 µM (inactive) | – | – | – | –
CNC(=O)c1ccccc1-[s+]1c2ccccc2c(=O)n1C (centres undefined) | > 100 µM (inactive) | > 100 µM (inactive) | > 100 µM (inactive) | > 100 µM (inactive) | > 100 µM (inactive) | > 100 µM (inactive) | > 100 µM (inactive) | > 100 µM (inactive) | > 100 µM (inactive) | > 100 µM (inactive) | > 100 µM (inactive) | > 100 µM (inactive) | – | > 100 µM (inactive) | > 100 µM (inactive) | > 100 µM (inactive) | > 100 µM (inactive) | > 100 µM (inactive) | > 100 µM (inactive) | –
CCC(O)(Cc1ccc(OC)cc1)c1ccc(OC)cc1 (centres undefined) | > 100 µM (inactive) | > 100 µM (inactive) | > 100 µM (inactive) | > 100 µM (inactive) | > 100 µM (inactive) | > 100 µM (inactive) | > 100 µM (inactive) | > 100 µM (inactive) | > 100 µM (inactive) | > 100 µM (inactive) | > 100 µM (inactive) | > 100 µM (inactive) | > 100 µM (inactive) | > 100 µM (inactive) | – | > 100 µM (inactive) | > 100 µM (inactive) | 84.7 µM (inactive) | > 100 µM (inactive) | 0.0641 µM (active)
Cc1ccc(S(=O)(=O)c2c(O)c3ccccc3n(C)c2=O)cc1 | > 100 µM (inactive) | – | > 100 µM (inactive) | > 100 µM (inactive) | > 100 µM (inactive) | – | > 100 µM (inactive) | > 100 µM (inactive) | > 100 µM (inactive) | > 100 µM (inactive) | > 100 µM (inactive) | > 100 µM (inactive) | > 100 µM (inactive) | > 100 µM (inactive) | > 100 µM (inactive) | > 100 µM (inactive) | > 100 µM (inactive) | > 100 µM (inactive) | > 100 µM (inactive) | –
CC(C)(C)OC(=O)NC(Cc1ccc(OCc2ccccc2)cn1)C(=O)O (centres undefined) | > 100 µM (inactive) | > 100 µM (inactive) | > 100 µM (inactive) | – | > 100 µM (inactive) | – | > 100 µM (inactive) | > 100 µM (inactive) | > 100 µM (inactive) | > 100 µM (inactive) | – | > 100 µM (inactive) | – | > 100 µM (inactive) | – | – | > 100 µM (inactive) | > 100 µM (inactive) | > 100 µM (inactive) | > 100 µM (inactive)
Cc1ccc2c(=O)c(-c3nnc(N)s3)c[nH]c2n1 | > 100 µM (inactive) | > 100 µM (inactive) | > 100 µM (inactive) | > 100 µM (inactive) | > 100 µM (inactive) | > 100 µM (inactive) | > 100 µM (inactive) | > 100 µM (inactive) | 42.2 µM (inactive) | > 100 µM (inactive) | > 100 µM (inactive) | > 100 µM (inactive) | – | > 100 µM (inactive) | > 100 µM (inactive) | > 100 µM (inactive) | > 100 µM (inactive) | > 100 µM (inactive) | 83.4 µM (inactive) | –
N#[N+]c1cc2c(cc1Br)-c1ccccc1C2 | 95.9 µM (inactive) | > 100 µM (inactive) | 70 µM (inactive) | > 100 µM (inactive) | 81.8 µM (inactive) | 10.3 µM (inactive) | 46.9 µM (inactive) | > 100 µM (inactive) | 15.6 µM (inactive) | – | 83.9 µM (inactive) | 48.5 µM (inactive) | > 100 µM (inactive) | > 100 µM (inactive) | > 100 µM (inactive) | 44.9 µM (inactive) | 40 µM (inactive) | > 100 µM (inactive) | 78.3 µM (inactive) | 0.413 µM (active)
N#C/C(=C\c1cc(Br)c(O)c(Br)c1)c1cccnc1 | 34.2 µM (inactive) | 36.3 µM (inactive) | 22.5 µM (inactive) | 26.1 µM (inactive) | – | 23.9 µM (inactive) | 21 µM (inactive) | 41.6 µM (inactive) | 35.6 µM (inactive) | 22 µM (inactive) | 19.3 µM (inactive) | > 10 µM (inactive) | 42.2 µM (inactive) | 28.8 µM (inactive) | – | 43.8 µM (inactive) | 17.2 µM (inactive) | 33.3 µM (inactive) | 41.3 µM (inactive) | 31.3 µM (inactive)

Source: ChEMBL document CHEMBL1201862, “PubChem BioAssay data set” (2004)
